# Experiments:
# [1] = test system: cerebellar granule neurons (CGNs); assay: Hoechst 33342 staining of apoptotic bodies in glutamate-challenged CGNs; format: cell-based, rat; settings: 24 h glutamate 100 µM
# Description: CGNs were prepared from the 8-day-old Sprague–Dawley rats as described in our previous publication (Li et al., 2005). Briefly, animals were anesthetized and sacrificed, and their cerebella were collected. Then, the freshly collected cerebella were rinsed in cold Kreb’s buffer-BSA and digested with 0.025 % trypsin incubated in a 37°C for 15 min. The reaction was stopped, and the single cell suspension was obtained through pipetting up and down the sedimentary tissue. CGNs were seeded in basal modified Eagle’s medium (ThermoFisher Scientific, Waltham, MA, USA) supplemented with 10 % fetal bovine serum, 25 mM KCl, 2 mM glutamine and 100 units/mL penicillin/streptomycin at a density of 1.5×10^6 cells/mL. […]
# Chromatin condensation, the apoptotic characteristic feature, was determined by Hoechst 33342 staining as described in previous publications with some modifications (Guo et al., 2017; Jiajia et al., 2017). […] The nuclei were visualized by using a fluorescence Leica TCS SPE confocal (Leica, Wetzlar, Germany) at 200× magnification. In the observation, cells with bright blue fragmented nuclei, which were showing condensation of chromatin, were counted as apoptotic cells. Condensed nuclei were scored by counting at least 500 cells of three randomly chosen fields for each sample in three separated experiments.
# APP/PS1 mice = assay: Aβ plaque staining and Aβ ELISA in brains of APP/PS1 mice; format: in vivo; settings: for amyloid plaque burdens (Aβ1‐42, Aβ1‐16 staining): prevention study, hippocampus and cortex
# Description: APP/PS1 transgenic mice were purchased from Jackson Laboratory and reproduced in the Shenzhen Center for Disease Control and Prevention (Shenzhen, China). Two‐month‐old APP/PS1 mice were divided into four groups: (1) APP/PS1 + Vehicle group; (2) APP/PS1 + MN‐08 (6 mg/kg) group; (3) APP/PS1 + Memantine (Mem, 5 mg/kg) group; (4) APP/PS1 + Donepezil (Done, 1.3 mg/kg, once daily) group; (5) Two‐month‐old C57BL/6J mice as a control group. The APP/PS1 mice were administered drugs twice a day (Done, once daily) by gastric gavage from ages 2 to 8 months for 6 months successively. Control and vehicle groups received equal volumes of saline.
# To evaluate the concentration of soluble and insoluble Aβ in AD mice, the hippocampus and cortex were homogenized in the lysate, which was then centrifuged at 12000 g for 30 min at 4°C. Supernatant samples were collected as soluble Aβ. Sediment of the cortex and hippocampus was resuspended with formic acid, incubated on ice for 60 min and then centrifuged at 12,000 g for 30 min at 4°C. The supernatant and Tris/NaH2PO4 buffer were mixed as insoluble Aβ. The concentration of Aβ was analyzed by ELISA kit of human amyloid β (R&D Systems, Minneapolis, MN, USA) following the manufacturer’s instructions.
# Immunohistochemistry and immunofluorescence staining were carried out as previously described (Zhang et al., 2017). Coronal brain sections were incubated with […] sodium citrate (pH 6.0) and heated for 15 min. After cooling to room temperature, the sections were immersed in 3 % H2O2 for 10 min followed by blocking solution (10 % fetal bovine serum, 1 % bovine serum albumin and 0.1 % Triton X-100) for 1 h. Sections were then incubated with the following appropriate primary antibodies overnight at 4°C: anti-Aβ1-42 antibody (#ab10148, 1:1000, Abcam), anti-Aβ1-16 antibody (#803014, 1:1000, Abcam) and anti-NeuN antibody (#ab177487, 1:400, Abcam). After rinsing 3 times, the sections of immunohistochemistry staining were incubated with biotin-conjugated universal secondary antibody (Gene Tech, Shanghai, China). For immunofluorescence staining, the sections were incubated with appropriate secondary antibodies for 2 h at room temperature. Image J software was used to analyze the fluorescence intensity and cell counting from six slices at similar coronal positions of each animal; this was performed by a viewer blinded to the experimental group.
# [2] = toxicology study in beagle dogs (NOAEL); settings: dog, in vivo
# Description: Forty healthy adult beagle dogs were randomly divided into 4 groups of 5 males (weighing 6.43-8.40 kg) and 5 females (weighing 5.39-6.77 kg) each: (1) Placebo group; (2) MN-08 (4 mg/kg) group; (2) MN-08 (12 mg/kg) group; (3) MN-08 (24 mg/kg) group. MN-08 tablets were administered to beagle dogs by gastric gavage for 4 weeks. The no observed adverse effect level (NOAEL) was examined according to previously described (Brownawell, Carmines, & Montesano, 2011).
Compound,numbers of apoptotic bodies ([1]; memantine 10 µM),"amyloid plaque burdens (Aβ1‐42, Aβ1‐16 staining) (APP/PS1 mice; memantine 5 mg/kg)","NOAEL ([2]; beagle dogs, memantine, regimen not stated, read-out: no observed adverse effect level (NOAEL))",numbers of apoptotic bodies ([1]; MN‐08 30 µM),"amyloid plaque burdens (Aβ1‐42, Aβ1‐16 staining) (APP/PS1 mice; MN‐08 6 mg/kg)","soluble and insoluble Aβ1–42 (ELISA) (APP/PS1 mice; MN‐08 6 mg/kg, hippocampal and cortical regions)","levels of Aβ1–40 (ELISA) (APP/PS1 mice; MN‐08 6 mg/kg, hippocampi and cortices)","NOAEL at 4 weeks ([2]; both sexes, beagle, po)"
"CC12CC3CC(C)(C1)CC(N)(C3)C2 [memantine, 1‐amino‐3,5‐dimethyladamantane]",significantly reduced,obviously attenuated,9 mg/kg,,,,,
CCC12CC3CC(N)(C1)CC(CO[N+](=O)[O-])(C3)C2 (centres unmarked) [MN‐08],,,,significantly reduced,obviously attenuated,significantly decreased,no significant difference,24 mg/kg

# — PMC8208785, “Therapeutic efficacy of novel memantine nitrate MN‐08 in animal models of Alzheimer’s disease” (Aging Cell, 2021)
